Reference: patent US4514573A, “Isoprenylamine derivatives” (priority 1981, dated 1985)

Test system: vaccinia virus
Assay: animal or person
Assay type: in vivo, ICR female mice
Details: Orthopoxvirus vaccinia, in Mus musculus, ip, 192 h, read-out: Prevention from vaccinia infection (Pock inhibition rate %)

| Compound | inhibition in vivo at 50 mg/kg [%] |
| --- | --- |
| COc1ccc(CNCC=C(C)CCC=C(C)CCC=C(C)CCC=C(C)CCC=C(C)CCC=C(C)CCC=C(C)CCC=C(C)CCC=C(C)C)cc1OC [drawing 40] | 54.1 |
| CC(C)=CCCC(C)=CCCC(C)=CCCC(C)=CCCC(C)=CCCC(C)=CCCC(C)=CCCC(C)=CCCC(C)=CCCC(C)=CCNCCCc1ccccc1 [drawing 28] | 68.1 |
| COc1ccc(CNCC=C(C)CCC=C(C)CCC=C(C)CCC=C(C)CCC=C(C)CCC=C(C)CCC=C(C)CCC=C(C)CCC=C(C)CCC=C(C)C)cc1 [drawing 39] | 58.8 |
| COc1cc(CNCC=C(C)CCC=C(C)CCC=C(C)CCC=C(C)CCC=C(C)CCC=C(C)CCC=C(C)CCC=C(C)CCC=C(C)CCC=C(C)C)ccc1O [drawing 38] | 67.1 |
| CC(C)=CCCC(C)=CCCC(C)=CCCC(C)=CCCC(C)=CCCC(C)=CCCC(C)=CCCC(C)=CCCC(C)=CCCC(C)=CCNc1ccc(C(=O)O)c(O)c1 [drawing 27] | 42.9 |
| COc1ccc(CNC/C=C(\C)CCC=C(C)C)cc1OC | 10 |
| CC(C)=CCCC(C)=CCCC(C)=CCCC(C)=CCCC(C)=CCCC(C)=CCCC(C)=CCCC(C)=CCCC(C)=CCCC(C)=CCNCC(O)c1ccccc1 (stereo not shown) [drawing 43] | 64.4 |
| CC(C)=CCCC(C)=CCCC(C)=CCCC(C)=CCCC(C)=CCCC(C)=CCCC(C)=CCCC(C)=CCCC(C)=CCCC(C)=CCNC(c1ccccc1)c1ccccc1 [drawing 34] | 14.8 |
| CC(C)=CCCC(C)=CCCC(C)=CCCC(C)=CCCC(C)=CCCC(C)=CCCC(C)=CCCC(C)=CCCC(C)=CCCC(C)=CCNCCCCc1ccccc1 [drawing 36] | 40.3 |
| COc1ccc(CCNCC=C(C)CCC=C(C)CCC=C(C)CCC=C(C)CCC=C(C)CCC=C(C)CCC=C(C)CCC=C(C)CCC=C(C)CCC=C(C)C)cc1OC [drawing 37] | 68.1 |
| COc1cccc(CNCC=C(C)CCC=C(C)CCC=C(C)CCC=C(C)CCC=C(C)CCC=C(C)CCC=C(C)CCC=C(C)CCC=C(C)CCC=C(C)C)c1OC [drawing 42] | 32.5 |
| CC(C)=CCCC(C)=CCCC(C)=CCCC(C)=CCCC(C)=CCCC(C)=CCCC(C)=CCCC(C)=CCCC(C)=CCCC(C)=CCNCc1ccc(Cl)cc1 [drawing 32] | 34 |
| COc1ccc(CNCC=C(C)CCC=C(C)CCC=C(C)CCC=C(C)CCC=C(C)CCC=C(C)CCC=C(C)CCC=C(C)CCC=C(C)CCC=C(C)C)cc1OC [drawing 33] | 35.4 |
| CC(C)=CCCC(C)=CCCC(C)=CCCC(C)=CCCC(C)=CCCC(C)=CCCC(C)=CCCC(C)=CCCC(C)=CCCC(C)=CCNc1ccc(C(=O)O)cc1 [drawing 26] | 15 |
| CC(C)=CCCC(C)=CCCC(C)=CCCC(C)=CCCC(C)=CCCC(C)=CCCC(C)=CCCC(C)=CCCC(C)=CCCC(C)=CCNCc1cccc(CN)c1 [drawing 41] | 91.4 |
| CC(C)=CCCC(C)=CCCC(C)=CCCC(C)=CCCC(C)=CCCC(C)=CCCC(C)=CCCC(C)=CCCC(C)=CCCC(C)=CCNCc1ccc(C)cc1 [drawing 31] | 44.8 |
| CC(C)=CCCC(C)=CCCC(C)=CCCC(C)=CCCC(C)=CCCC(C)=CCCC(C)=CCCC(C)=CCCC(C)=CCCC(C)=CCNCCc1ccc(N)cc1 [drawing 35] | 64.4 |
| CC(C)=CCCC(C)=CCCC(C)=CCCC(C)=CCCC(C)=CCCC(C)=CCCC(C)=CCCC(C)=CCCC(C)=CCCC(C)=CCNCc1ccc([N+](=O)[O-])cc1 [drawing 29] | 47.7 |
| CC(C)=CCCC(C)=CCCC(C)=CCCC(C)=CCCC(C)=CCCC(C)=CCCC(C)=CCCC(C)=CCCC(C)=CCCC(C)=CCNCc1cccc2ccccc12 [drawing 30] | 21.6 |

Test system: not listed separately
Assay: Toxicity (50% lethal dose, intravenous)
Details: mouse, in vivo, ddY male mice 20-25 g, read-out: LD50 (Intravenously administered mg/kg)
From the text: Using ddY male mice weighing 20-25 g, 50% lethal dose of each test compound when intravenously administered was obtained, the results of which are shown in Table 5.

| Compound | LD50 [mg/kg] |
| --- | --- |
| CC(C)=CCCC(C)=CCCC(C)=CCCC(C)=CCCC(C)=CCCC(C)=CCCC(C)=CCCC(C)=CCCC(C)=CCCC(C)=CCNCCc1ccc(N)cc1 [drawing 67] | 28 |
| CC(C)=CCCC(C)=CCCC(C)=CCCC(C)=CCCC(C)=CCCC(C)=CCCC(C)=CCCC(C)=CCCC(C)=CCCC(C)=CCNc1ccc(C(=O)O)cc1 [drawing 59] | 27.7 |
| CC(C)=CCCC(C)=CCCC(C)=CCCC(C)=CCCC(C)=CCCC(C)=CCCC(C)=CCCC(C)=CCCC(C)=CCCC(C)=CCNC(c1ccccc1)c1ccccc1 [drawing 66] | 1180 |
| CC(C)=CCCC(C)=CCCC(C)=CCCC(C)=CCCC(C)=CCCC(C)=CCCC(C)=CCCC(C)=CCCC(C)=CCCC(C)=CCNCc1cccc2ccccc12 [drawing 62] | 207 |
| COc1ccc(CNCC=C(C)CCC=C(C)CCC=C(C)CCC=C(C)CCC=C(C)CCC=C(C)CCC=C(C)CCC=C(C)CCC=C(C)CCC=C(C)C)cc1 [drawing 68] | 68 |
| COc1ccc(CNCC=C(C)CCC=C(C)CCC=C(C)CCC=C(C)CCC=C(C)CCC=C(C)CCC=C(C)CCC=C(C)CCC=C(C)C)cc1OC [drawing 69] | 26 |
| COc1ccc(CNCC=C(C)CCC=C(C)CCC=C(C)CCC=C(C)CCC=C(C)CCC=C(C)CCC=C(C)CCC=C(C)CCC=C(C)CCC=C(C)C)cc1OC [drawing 65] | 56.8 |
| CC(C)=CCCC(C)=CCCC(C)=CCCC(C)=CCCC(C)=CCCC(C)=CCCC(C)=CCCC(C)=CCCC(C)=CCCC(C)=CCNCc1ccc(C)cc1 [drawing 63] | 123 |
| COc1cccc(CNCC=C(C)CCC=C(C)CCC=C(C)CCC=C(C)CCC=C(C)CCC=C(C)CCC=C(C)CCC=C(C)CCC=C(C)CCC=C(C)C)c1OC [drawing 70] | 30 |
| CC(C)=CCCC(C)=CCCC(C)=CCCC(C)=CCCC(C)=CCCC(C)=CCCC(C)=CCCC(C)=CCCC(C)=CCCC(C)=CCNCc1ccc([N+](=O)[O-])cc1 [drawing 61] | > 269 |
| CC(C)=CCCC(C)=CCCC(C)=CCCC(C)=CCCC(C)=CCCC(C)=CCCC(C)=CCCC(C)=CCCC(C)=CCCC(C)=CCNc1ccc(C(=O)O)c(O)c1 [drawing 60] | 45 |
| CC(C)=CCCC(C)=CCCC(C)=CCCC(C)=CCCC(C)=CCCC(C)=CCCC(C)=CCCC(C)=CCCC(C)=CCCC(C)=CCNCc1ccc(Cl)cc1 [drawing 64] | 371 |

Test system: Human interferon; normal diploid cells (fibroblast)
Assay: Human interferon-inducing activity (in vitro), 3H-uridine-uptake inhibition
Assay type: cell-based
Details: 25 n molar suspension
Method: Interferon was induced according to the method of Edward A. Havell et al. by treating normal diploid cells (fibroblast) originated from human being with each test compound in the form of ethanol solution diluted with PBS (-) (25 n molar suspension). Using the radioisotope microassay method of H. Ishitsuka et al., interferon was measured in terms of 3H-uridine-uptakeinhibition rate.

| Compound | Human interferon 3H uridine-uptake inhibition rate % [%] |
| --- | --- |
| COc1ccc(CNCC=C(C)CCCC(C)CCCC(C)CCCC(C)C)cc1OC (stereo not shown) [drawing 87] | 1.8 |
| COc1cc(CNCC=C(C)CCC=C(C)CCC=C(C)CCC=C(C)CCC=C(C)CCC=C(C)CCC=C(C)CCC=C(C)CCC=C(C)CCC=C(C)C)ccc1O [drawing 81] | 41.9 |
| COc1ccc(CNCC=C(C)CCC=C(C)CCC=C(C)CCC=C(C)CCC=C(C)CCC=C(C)CCC=C(C)CCC=C(C)CCC=C(C)C)cc1OC [drawing 83] | 86.9 |
| CC(C)=CCCC(C)=CCCC(C)=CCCC(C)=CCCC(C)=CCCC(C)=CCCC(C)=CCCC(C)=CCCC(C)=CCCC(C)=CCNCc1cccc2ccccc12 [drawing 75] | 13.7 |
| CC(C)=CCCC(C)=CCCC(C)=CCCC(C)=CCCC(C)=CCCC(C)=CCCC(C)=CCCC(C)=CCCC(C)=CCCC(C)=CCNCCCc1ccccc1 [drawing 73] | 17.7 |
| COc1cccc(CNCC=C(C)CCC=C(C)CCC=C(C)CCC=C(C)CCC=C(C)CCC=C(C)CCC=C(C)CCC=C(C)CCC=C(C)CCC=C(C)C)c1OC [drawing 85] | 26.6 |
| CC(C)=CCCC(C)=CCCC(C)=CCCC(C)=CCCC(C)=CCCC(C)=CCCC(C)=CCCC(C)=CCCC(C)=CCCC(C)=CCNCc1cccc(CN)c1 [drawing 84] | 20.2 |
| COc1ccc(CCNCC=C(C)CCC=C(C)CCC=C(C)CCC=C(C)CCC=C(C)CCC=C(C)CCC=C(C)CCC=C(C)CCC=C(C)CCC=C(C)C)cc1OC [drawing 80] | 32.5 |
| CC(C)=CCCC(C)=CCCC(C)=CCCC(C)=CCCC(C)=CCCC(C)=CCCC(C)=CCCC(C)=CCCC(C)=CCCC(C)=CCNCc1ccc(C)cc1 [drawing 76] | 91.1 |
| COc1ccc(CNCC=C(C)CCC=C(C)CCC=C(C)CCC=C(C)CCC=C(C)CCC=C(C)CCC=C(C)CCC=C(C)CCC=C(C)CCC=C(C)C)cc1 [drawing 82] | 61.4 |
| COc1cc(CNCC=C(C)CCC=C(C)CCC=C(C)CCC=C(C)CCC=C(C)CCC=C(C)CCC=C(C)CCC=C(C)CCC=C(C)C)cc(OC)c1OC | 21.5 |
| CC(C)=CCCC(C)=CCCC(C)=CCCC(C)=CCCC(C)=CCCC(C)=CCCC(C)=CCCC(C)=CCCC(C)=CCCC(C)=CCNc1ccc(C(=O)O)cc1 [drawing 71] | 12.7 |
| CC(C)=CCCC(C)=CCCC(C)=CCCC(C)=CCCC(C)=CCCC(C)=CCCC(C)=CCCC(C)=CCCC(C)=CCCC(C)=CCNc1ccc(C(=O)O)c(O)c1 [drawing 72] | 39.8 |
| CC(C)=CCCC(C)=CCCC(C)=CCCC(C)=CCCC(C)=CCCC(C)=CCCC(C)=CCCC(C)=CCCC(C)=CCCC(C)=CCNCC(O)c1ccccc1 (stereo not shown) [drawing 86] | 37.6 |
| CC(C)=CCCC(C)=CCCC(C)=CCCC(C)=CCCC(C)=CCCC(C)=CCCC(C)=CCCC(C)=CCCC(C)=CCCC(C)=CCNCCCCc1ccccc1 [drawing 79] | 67.2 |
| CC(C)=CCCC(C)=CCCC(C)=CCCC(C)=CCCC(C)=CCCC(C)=CCCC(C)=CCCC(C)=CCCC(C)=CCCC(C)=CCNCc1ccc(Cl)cc1 [drawing 77] | 75.7 |
| CC(C)=CCCC(C)=CCCC(C)=CCCC(C)=CCCC(C)=CCCC(C)=CCCC(C)=CCCC(C)=CCCC(C)=CCCC(C)=CCNCc1ccc([N+](=O)[O-])cc1 [drawing 74] | 23.6 |
| COc1ccc(CNCC=C(C)CCC=C(C)CCC=C(C)CCC=C(C)CCC=C(C)CCC=C(C)CCC=C(C)CCC=C(C)CCC=C(C)CCC=C(C)C)cc1OC [drawing 78] | 77.8 |
